Like-named read-outs stand apart in the source and are kept apart here.
Tests used:
Format in all cases: binding
[1] = biological target: kinases (KINOMEscan panel) (Homo sapiens, UniProt P23458); settings: JAK1(JH1domain-catalytic); NEW KINOMEscan
[2] = biological target: kinases (KINOMEscan panel) (Homo sapiens, UniProt P49137)
[3] = biological target: T1, kinases (KINOMEscan panel) (Homo sapiens, UniProt Q12851); settings: kinase MAP4K2; NEW KINOMEscan
T1 sequence (Q12851 1-820): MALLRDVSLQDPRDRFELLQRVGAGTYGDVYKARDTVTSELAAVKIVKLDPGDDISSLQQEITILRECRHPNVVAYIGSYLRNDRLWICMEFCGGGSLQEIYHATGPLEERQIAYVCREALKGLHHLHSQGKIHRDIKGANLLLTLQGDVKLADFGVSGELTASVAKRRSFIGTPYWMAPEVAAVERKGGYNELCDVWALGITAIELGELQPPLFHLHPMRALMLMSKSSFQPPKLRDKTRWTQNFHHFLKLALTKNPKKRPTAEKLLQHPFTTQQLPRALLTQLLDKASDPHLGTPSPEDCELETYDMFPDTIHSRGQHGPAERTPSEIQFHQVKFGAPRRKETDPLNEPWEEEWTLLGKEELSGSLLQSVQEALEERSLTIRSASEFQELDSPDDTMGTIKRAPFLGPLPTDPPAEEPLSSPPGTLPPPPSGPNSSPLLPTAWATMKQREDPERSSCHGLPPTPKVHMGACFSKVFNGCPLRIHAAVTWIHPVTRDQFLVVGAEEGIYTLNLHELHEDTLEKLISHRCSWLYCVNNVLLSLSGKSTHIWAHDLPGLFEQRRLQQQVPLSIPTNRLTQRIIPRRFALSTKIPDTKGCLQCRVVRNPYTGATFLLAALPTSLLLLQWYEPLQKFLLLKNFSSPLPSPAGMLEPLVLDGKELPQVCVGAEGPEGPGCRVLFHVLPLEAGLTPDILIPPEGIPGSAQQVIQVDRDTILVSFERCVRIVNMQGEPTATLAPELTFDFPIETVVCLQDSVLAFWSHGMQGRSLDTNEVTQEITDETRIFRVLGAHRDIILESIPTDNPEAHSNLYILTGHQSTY

[4] = biological target: T2, kinases (KINOMEscan panel) (Homo sapiens, UniProt Q13237); settings: PRKG2; NEW KINOMEscan
T2 sequence (Q13237 1-762): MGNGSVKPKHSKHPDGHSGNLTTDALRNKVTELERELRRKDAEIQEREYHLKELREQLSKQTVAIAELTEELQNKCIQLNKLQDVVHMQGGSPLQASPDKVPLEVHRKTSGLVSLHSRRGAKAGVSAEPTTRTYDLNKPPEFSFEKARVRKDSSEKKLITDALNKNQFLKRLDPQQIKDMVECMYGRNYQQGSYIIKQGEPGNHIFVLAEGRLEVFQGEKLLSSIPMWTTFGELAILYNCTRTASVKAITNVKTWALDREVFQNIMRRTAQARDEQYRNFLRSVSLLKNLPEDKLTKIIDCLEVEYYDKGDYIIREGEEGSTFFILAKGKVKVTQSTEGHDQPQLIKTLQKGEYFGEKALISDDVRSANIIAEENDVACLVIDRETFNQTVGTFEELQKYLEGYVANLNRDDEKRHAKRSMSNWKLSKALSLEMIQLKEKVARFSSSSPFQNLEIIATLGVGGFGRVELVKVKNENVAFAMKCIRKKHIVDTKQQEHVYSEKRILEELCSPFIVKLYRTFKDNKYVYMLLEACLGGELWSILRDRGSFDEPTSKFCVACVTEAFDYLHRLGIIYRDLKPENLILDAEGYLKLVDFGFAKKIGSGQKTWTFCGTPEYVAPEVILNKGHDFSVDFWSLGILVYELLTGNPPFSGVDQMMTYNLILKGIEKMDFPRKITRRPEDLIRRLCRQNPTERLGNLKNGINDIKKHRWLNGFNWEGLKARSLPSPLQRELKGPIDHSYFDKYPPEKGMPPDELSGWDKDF

[5] = biological target: kinases (KINOMEscan panel) (Homo sapiens, UniProt Q13627); settings: NEW KINOMEscan
[6] = biological target: T3, kinases (KINOMEscan panel) (Homo sapiens, UniProt Q8TD19); settings: NEK9; NEW KINOMEscan
T3 sequence (Q8TD19 1-979): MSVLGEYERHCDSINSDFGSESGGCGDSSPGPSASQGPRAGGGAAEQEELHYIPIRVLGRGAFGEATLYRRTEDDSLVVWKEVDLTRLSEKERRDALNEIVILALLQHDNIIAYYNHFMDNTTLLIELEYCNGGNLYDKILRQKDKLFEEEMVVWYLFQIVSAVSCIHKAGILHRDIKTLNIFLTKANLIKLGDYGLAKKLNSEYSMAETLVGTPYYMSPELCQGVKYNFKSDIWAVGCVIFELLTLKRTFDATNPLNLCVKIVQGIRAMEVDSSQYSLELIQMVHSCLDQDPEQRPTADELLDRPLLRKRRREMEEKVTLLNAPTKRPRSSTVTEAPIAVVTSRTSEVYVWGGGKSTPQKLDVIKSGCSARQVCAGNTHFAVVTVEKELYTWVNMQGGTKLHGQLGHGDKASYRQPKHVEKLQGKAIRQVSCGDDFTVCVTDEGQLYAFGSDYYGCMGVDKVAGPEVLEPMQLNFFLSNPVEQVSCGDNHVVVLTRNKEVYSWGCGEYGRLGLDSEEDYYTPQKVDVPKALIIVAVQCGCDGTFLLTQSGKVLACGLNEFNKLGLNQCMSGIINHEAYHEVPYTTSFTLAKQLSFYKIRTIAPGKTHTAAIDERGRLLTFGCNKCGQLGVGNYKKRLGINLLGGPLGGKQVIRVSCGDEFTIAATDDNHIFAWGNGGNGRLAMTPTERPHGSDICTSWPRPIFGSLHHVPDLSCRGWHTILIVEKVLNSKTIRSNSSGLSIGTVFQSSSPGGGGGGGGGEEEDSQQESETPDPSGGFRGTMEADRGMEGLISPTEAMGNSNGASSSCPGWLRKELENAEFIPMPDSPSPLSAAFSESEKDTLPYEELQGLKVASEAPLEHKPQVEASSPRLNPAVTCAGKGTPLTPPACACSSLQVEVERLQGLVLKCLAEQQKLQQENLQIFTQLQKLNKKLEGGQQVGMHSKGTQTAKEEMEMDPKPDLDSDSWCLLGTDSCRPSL

Sequence of kinases (KINOMEscan panel) (Homo sapiens, UniProt P23458) (P23458 whole entry): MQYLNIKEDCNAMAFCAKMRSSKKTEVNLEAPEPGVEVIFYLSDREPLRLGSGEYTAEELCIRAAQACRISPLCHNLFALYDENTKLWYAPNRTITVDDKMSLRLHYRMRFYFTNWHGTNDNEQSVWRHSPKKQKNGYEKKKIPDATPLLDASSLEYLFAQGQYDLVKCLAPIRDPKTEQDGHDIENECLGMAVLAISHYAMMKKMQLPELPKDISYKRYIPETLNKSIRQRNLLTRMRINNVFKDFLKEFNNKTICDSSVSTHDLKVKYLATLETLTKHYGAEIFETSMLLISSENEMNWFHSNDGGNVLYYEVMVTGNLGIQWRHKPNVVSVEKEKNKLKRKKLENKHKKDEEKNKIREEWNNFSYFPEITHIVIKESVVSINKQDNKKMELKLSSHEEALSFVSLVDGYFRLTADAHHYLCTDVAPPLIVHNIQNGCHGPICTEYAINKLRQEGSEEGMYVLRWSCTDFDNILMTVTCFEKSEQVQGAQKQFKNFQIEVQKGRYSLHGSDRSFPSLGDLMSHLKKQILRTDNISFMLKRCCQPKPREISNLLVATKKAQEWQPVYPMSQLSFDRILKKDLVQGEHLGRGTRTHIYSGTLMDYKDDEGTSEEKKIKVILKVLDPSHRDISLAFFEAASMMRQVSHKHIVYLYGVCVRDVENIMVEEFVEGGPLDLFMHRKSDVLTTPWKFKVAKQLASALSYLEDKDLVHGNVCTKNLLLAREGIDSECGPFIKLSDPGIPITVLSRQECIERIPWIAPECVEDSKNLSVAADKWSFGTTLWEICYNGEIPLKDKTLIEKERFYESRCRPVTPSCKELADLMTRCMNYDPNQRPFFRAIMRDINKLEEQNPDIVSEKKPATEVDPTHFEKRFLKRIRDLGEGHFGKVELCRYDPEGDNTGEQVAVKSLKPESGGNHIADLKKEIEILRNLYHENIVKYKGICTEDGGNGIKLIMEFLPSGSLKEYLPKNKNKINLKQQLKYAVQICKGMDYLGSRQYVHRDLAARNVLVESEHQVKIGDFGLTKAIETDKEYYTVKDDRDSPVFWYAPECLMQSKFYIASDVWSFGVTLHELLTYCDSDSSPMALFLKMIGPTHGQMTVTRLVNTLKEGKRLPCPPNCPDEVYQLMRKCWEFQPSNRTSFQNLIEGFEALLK
Sequence of kinases (KINOMEscan panel) (Homo sapiens, UniProt P49137) (P49137 whole entry): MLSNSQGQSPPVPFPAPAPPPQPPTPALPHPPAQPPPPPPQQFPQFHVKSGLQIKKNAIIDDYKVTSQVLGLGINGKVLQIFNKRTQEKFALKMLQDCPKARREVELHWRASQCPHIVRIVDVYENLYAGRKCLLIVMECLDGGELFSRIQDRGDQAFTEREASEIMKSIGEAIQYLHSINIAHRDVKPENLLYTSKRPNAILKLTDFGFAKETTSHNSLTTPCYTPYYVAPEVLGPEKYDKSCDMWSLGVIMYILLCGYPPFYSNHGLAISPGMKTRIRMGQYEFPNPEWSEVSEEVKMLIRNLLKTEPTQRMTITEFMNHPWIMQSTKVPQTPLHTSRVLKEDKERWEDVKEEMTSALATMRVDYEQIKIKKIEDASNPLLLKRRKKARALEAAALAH

Row | Compound | KINOMEscan JAK1(JH1domain-catalytic) [1] | KINOMEscan MAPKAPK2 ([2]; kinase MAPKAPK2, NEW KINOMEscan) | KINOMEscan MAP4K2 [3] | KINOMEscan PRKG2 [4] | KINOMEscan DYRK1A [5] | KINOMEscan NEK9 [6] | KINOMEscan MAPKAPK2 [2]
1 | Cc1cccc(-c2nc(Nc3ccc4nn(C)cc4c3)c3ccccc3n2)n1 [NK167] | 0 | 0 | 0 | 5 | 0 | 0 | –
2 | Cc1cccc(-c2nc(N(C)c3ccc4ncsc4c3)c3ccccc3n2)n1 [NK-161] | 0 | – | 6 | 0 | 20 | 0 | 0

— paper PMC9851200, “Multiparameter phenotypic screening for endogenous TFEB and TFE3 translocation identifies novel chemical series modulating lysosome function” (Autophagy, 2022)
